According to US7772255B2, “Method of treating tumors with azaxanthones” (Supratek Pharma, Inc., priority 2005, dated 2010):
Structures can show the parent of a compound that is named as a salt. Where two headings read alike, the source gives them in different places.

Experiment: Pharmacokinetics and bioavailability in normal mice
Format: in vivo, mouse
Details: for AUC / Cmax / MRT / clearance / half-life / Vd / bioavailability: female; for Vd: read-out: Vss; for bioavailability: C57BL/6, plasma, po, mouse, sodium salt, read-out: Bioavailability for oral administration
Experimental: Female C57BL/6 mice were used at 6 to 7 weeks of age. The animals were given food (Purina mouse chow, Pro Lab PMH 4018, Trademark of Agway, Syracuse, N.Y., USA) and water ad libitum. The mice were kept at five per cage under light (12 h light/dark cycle) and temperature (22±1° C.) controlled environment. The animal studies were conducted according to the “Guidelines for Care and Use of Experimental Animals”.
Amlexanox sodium salt dosing solutions for oral administration were prepared by dissolving amlexanox sodium salt, prepared according to Example 10, in distilled water. amlexanox sodium salt dosing solutions for i.v. administration were prepared by dissolving amlexanox sodium salt, prepared according to Example 10, in isotonic solution (0.9% NaCl). Amlexanox meglumine formulation dosing solutions for oral administration were prepared by dissolving amlexanox meglumine formulation F1, prepared according to Example 12, in distilled water. Amlexanox meglumine formulation dosing solutions for i.v. administration were prepared by dissolving amlexanox meglumine formulation F1, prepared according to Example 13, in isotonic solution (0.9% NaCl). 1 mg/mL solution of amlexanox was used for dosing 10 mg/kg, and 10 mg/mL solution was used for dosing 100 mg/kg.
Amlexanox-X dosing solutions were administered i.v. and orally in normal mice (four animals per each time point). After various time intervals (15, 30 min and 1, 3, 6 and 8 h for Amlexanox-X Na salt and 15, 30 min, 1, 2 and 6 h for Amlexanox-X+MG) post-injection, blood and major organs (liver, kidney, lung and brain) were collected. Then, blood was immediately centrifuged, and plasma was separated. The plasma and tissue samples were immediately frozen in dry ice and stored at −80° C. until further use.
The defrosted plasma samples were centrifuged at 2000 g for 5 min, and aliquots (10 μL) of each sample were transferred into 1.5-ml plastic tubes. The samples were diluted with PBS in various amounts of times and aliquots of 100 μL were transferred into the other 1.5-ml plastic tubes. The samples were extracted with 1 mL of 100% acetonitrile for 10 min on 180° rotator. Then, the tubes were centrifuged at 10,000 g for 15 min.
The supernatant was separated to glass tubes and evaporated in a stream of nitrogen at […]. until dryness. The dried samples were kept at −20° C. until HPLC analysis. The samples were reconstituted in 100 μL of mobile phase analyze before analyze by HPLC.
The samples were analysed by HPLC using 250×4.6 mm, Phenomenex C18 Luna, 5 micron column, 1 mL/min flow rate of mobile phase 73% of 25 mM sodium phosphate pH 7.5 and 27% acetonitrile; fluorescent deyection λexcitation=348 nm, λemission=404 nm.
The concentrations of amlexanox in samples were determined by comparison with calibration curve obtained from spiked mouse plasma samples using the same analytical method. The areas under the curves (AUC) of amlexanox were calculated by trapezoidal method. Main pharmacokinetic parameters of amlexanox and bioavailability if amlexanox Na salt and amlexanox with meglumine formulation are shown in Tables below.

[1] = C57BL/6, iv, mouse plasma, i.v., 10 mg/kg
[2] = C57BL/6, iv, mouse plasma, i.v., 100 mg/kg
[3] = C57BL/6, mouse plasma, oral, 10 mg/kg
[4] = C57BL/6, mouse plasma, oral, 100 mg/kg

## CC(C)c1ccc2oc3nc(N)c(C(=O)O)cc3c(=O)c2c1 [Amlexanox (salt), 2-amino-7-isopropyl-1-azaxanthone-3-carboxylic acid sodium salt]
[1]
  AUC: 31.3 µg·h/mL
  Cmax: 55.7 µg/mL
  MRT: 0.5 h
  clearance: 5 mL/min/kg
  half-life: 0.4 h
  Vd: 0.2 L/kg
[2]
  AUC: 734 µg·h/mL
  Cmax: 590 µg/mL
  MRT: 1.2 h
  clearance: 0.167 mL/min/kg
  half-life: 0.8 h
  Vd: 0.02 L/kg
10 mg/kg
  bioavailability: 61.7%
100 mg/kg
  bioavailability: 41.1%
[3]
  AUC: 19.3 µg·h/mL
  Cmax: 17.6 µg/mL
  MRT: 1.6 h
  half-life: 1.1 h
[4]
  AUC: 302 µg·h/mL
  Cmax: 206 µg/mL
  MRT: 2.2 h
  half-life: 1.5 h
Mouse plasma, oral, 10 mg/kg
  CL: 8.3 mL/min/kg
  Vss: 0.8 L/kg
Mouse plasma, oral, 100 mg/kg
  Vss: 0.07 L/kg
